The data set in a line: RP, Thermo Scientific Acclaim RSLC 120 C18, 100 × 2.1 mm, 2.2 µm, 30 °C, 0.2 mL/min, estimated dead time 1.1 min; A: 90% water + 10% methanol + 0.01% formic acid + 5 mM ammonium formate, pH 3.61; B: methanol + 0.01% formic acid + 5 mM ammonium formate, pH 3.61; gradient (min/%B) 0/1 1/1 2/39 13/99.9 15/99.9 15.1/1 20.1/1. The settings on record: stereoisomer not certain.

For the compound `Nc1ccn(C2OC(CO)C(O)C2O)c(=O)n1` (stereo unspecified) [Cytarabin], the LC retention time is 1.39 min.
To `COP(=S)(OC)Oc1ccc(S(N)(=O)=O)cc1` [Cythioate] belongs 6.19 min.
For `CC(=O)OC1C(C)OC(n2cc(F)c(N)nc2=O)C1OC(C)=O` (stereo unspecified) [Cytidine-2' 3'-di-O-acetyl-5'-deoxy-5-fluoro], the LC retention time was 5.06 min.
Take `Nc1[nH]c(=O)ncc1F` [Cytosine-5-Fluoro (broad peak)]: the LC retention time is 1.43 min.
To `CNCCCC(C#N)(c1ccc(OC)c(OC)c1)C(C)C` (stereo unspecified) [D617 (met. of verapamil)] belongs 6.14 min.
`CCN(CC)C(=O)c1cccc(C)c1` [DEET (Diethyltoluamide)]: the LC retention time was 8.2 min.
The same measure for `CCN(CC)CCc1c[nH]c2ccccc12` [DET]: 4.34 min; for `CC(C)N(CCc1c[nH]c2cccc(O)c12)C(C)C` [DIPT- 4-OH]: 4.34 min; for `COc1ccc(CC(C)N)cc1OC` (stereo unspecified) [DMA (3-4-)]: 3.94 min.
Turning to `CCC(C)CC(C)N` (stereo unspecified) [DMAA (Methylhexanamine)], the LC retention time was 4.68 min.
The same measure for `CNC(C)C(=O)c1ccc(C)c(C)c1` (stereo unspecified) [DMMC (3-4-)]: 5.23 min; for `COc1ccc(CCN)cc1OC` [DMPEA]: 3.53 min; for `CN(C)S(=O)(=O)Nc1ccccc1` [DMSA (N N-Dimethylaminosulfanilide)]: 6.28 min.
With `Cc1ccc(NS(=O)(=O)N(C)C)cc1` [DMST (N.N-Dimethyl-N'-p-tolylsulphamide)], the LC retention time is 7.25 min.
Regarding `CN(C)CCc1c[nH]c2ccccc12` [DMT (Dimethyltryptamine)], the LC retention time is 3.94 min.
As to `COc1cc(CC(C)N)c(OC)cc1Br` (stereo unspecified) [DOB], the LC retention time is 5.93 min.
On to `COc1cc(CC(C)N)c(OC)cc1Cl` (stereo unspecified) [DOC], for which the LC retention time is 5.67 min.
Consider `CCc1cc(OC)c(CC(C)N)cc1OC` (stereo unspecified) [DOET], for which the LC retention time is 6.88 min.
As for `COc1cc(CC(C)N)c(OC)cc1C` (stereo unspecified) [DOM (2.5-Dimethoxy-4-methylamphetamine)], the LC retention time is 5.83 min.
As for `CCCN(CCC)CCc1c[nH]c2ccccc12` [DPT], the LC retention time is 5.26 min.
With `CCCCCCOC(=O)NC(=N)c1ccc(NCc2nc3cc(C(=O)N(CCC(=O)OCC)c4ccccn4)ccc3n2C)cc1` [Dabigatran etexilate], the LC retention time was 9.29 min.
As to `O=c1c(-c2ccc(O)cc2)coc2cc(O)ccc12` [Daidzein], the LC retention time is 6.89 min.
For `Cc1ccc(NC(=O)NC(C)(C)c2ccccc2)cc1` [Daimuron (Dymron)], the LC retention time was 9.68 min.
As for `CN(C)NC(=O)CCC(=O)O` [Daminozide], the LC retention time was 2.18 min.
As for `CN1CC2CC1CN2c1cc2c(cc1F)c(=O)c(C(=O)O)cn2C1CC1` (stereo unspecified) [Danofloxacin], the LC retention time was 4.54 min.
The same measure for `Cc1ccccc1N1CCN(CCc2nnc3n2CCCC3)CC1` [Dapiprazole]: 5.66 min; for `CN(C)C(CCOc1cccc2ccccc12)c1ccccc1` (stereo unspecified) [Dapoxetine]: 8.34 min; for `Nc1ccc(S(=O)(=O)c2ccc(N)cc2)cc1` [Dapsone]: 4.13 min.
To `CC(C)CN(CC(O)C(Cc1ccccc1)NC(=O)OC1COC2OCCC12)S(=O)(=O)c1ccc(N)cc1` (stereo unspecified) [Darunavir] belongs 8.21 min.
For the compound `CN1CSC(=S)N(C)C1` [Dazomet], the LC retention time was 3.97 min.
`N=C(N)N1CCc2ccccc2C1` [Debrisoquine]: the LC retention time is 4.39 min.
Consider `CCCCCCCCCCOc1cc2c(=O)c(C(=O)OCC)c[nH]c2cc1OCC` [Decoquinate], for which the LC retention time is 13.4 min.
As to `CC(=O)OCC(=O)C12N=C(C)OC1CC1C3CCC4=CC(=O)C=CC4(C)C3C(O)CC12C` (stereo unspecified) [Deflazacort], the LC retention time was 9.35 min.
As for `O=C1CN=C(c2ccccc2Cl)c2cc(Cl)ccc2N1` [Delorazepam], the LC retention time was 8.81 min.
For the compound `CCS(=O)(=O)CCSP(=O)(OC)OC` [Demeton-S-methylsulfone], the LC retention time is 4.15 min.
As to `CCOP(=O)(OCC)SCCSCC.CCOP(=S)(OCC)OCCSCC` [Demeton], the LC retention time is 8.91 min.
For the compound `O=C1CN(O)C(c2ccccc2)=c2cc(Cl)ccc2=N1` [Demoxepam], the LC retention time was 7.14 min.
The same measure for `CC[N+](CC)(CC(=O)Nc1c(C)cccc1C)Cc1ccccc1` [Denatonium]: 12.3 min; for `CCC(CC)COC(C(=O)OCCN(C)C)(c1ccccc1)c1ccccc1` [Denaverine]: 11.6 min; for `C#CCN(C)C(C)Cc1ccccc1` (stereo unspecified) [Deprenyl / Selegiline]: 4.68 min.
In the case of `C#CC[N+](C)([O-])C(C)Cc1ccccc1` (stereo unspecified) [Deprenyl-N-oxide], the LC retention time was 5.33 min.
For `C#CCNC(C)Cc1ccccc1` (stereo unspecified) [Deprenyl-Nor], the LC retention time was 4.66 min.
Consider `CCc1cc2c(s1)-n1c(C)nnc1CN=C2c1ccccc1` [Deschloroetizolam], for which the LC retention time was 8.43 min.
On to `Clc1ccc2c(c1)CCc1cccnc1C2=C1CCNCC1` [Desloratadine], for which the LC retention time is 7.48 min.
Regarding `CNc1nc(NC(C)C)nc(SC)n1` [Desmetryn], the LC retention time was 8.17 min.
As for `CN1CCC23c4c5ccc(O)c4OC2CCCC3C1C5` (stereo unspecified) [Desomorphine], the LC retention time was 3.84 min.
Regarding `CC1(C)OC2CC3C4CCC5=CC(=O)C=CC5(C)C4C(O)CC3(C)C2(C(=O)CO)O1` (stereo unspecified) [Desonide], the LC retention time was 9.04 min.
`c1ccc(C(c2ccccc2)C2CCCCN2)cc1` (stereo unspecified) [Desoxypipradol]: the LC retention time is 6.3 min.
As for `Nc1cn[nH]c(=O)c1Cl` [Desphenyl chloridazon], the LC retention time was 2.32 min.
To `CCC1C2CC3C4N(C)c5ccccc5C45CC(C2C5O)[N+]3(CC(O)CN(CC)CC)C1O` (stereo unspecified) [Detajmium] belongs 4.62 min; to `CC1CC2C3CCC4=CC(=O)C=CC4(C)C3(F)C(O)CC2(C)C1(O)C(=O)CO` (stereo unspecified) [Dexamethasone], 8.38 min; to `COc1ccc2c(c1)C13CCCCC1C(C2)N(C)CC3` (stereo unspecified) [Dextromethorphan], 6.51 min.
Consider `CCC(=O)OC(Cc1ccccc1)(c1ccccc1)C(C)CN(C)C` (stereo unspecified) [Dextropropoxyphene], for which the LC retention time is 7.73 min.
As to `CC12CCC3C(CC=C4CC(O)CCC43C)C1CCC2=O` (stereo unspecified) [Dhydroepiandrosterone (DHEA) / Androstenolone], the LC retention time was 10.2 min.
As to `CC(C)N(CCc1c[nH]c2ccccc12)C(C)C` [DiPT], the LC retention time was 4.87 min.
Take `CC(C)c1cc(Oc2ccccc2)cc(C(C)C)c1NC(=S)NC(C)(C)C` [Diafenthiuron]: the LC retention time was 12.9 min.
To `CCOP(=S)(OCC)SC(CCl)N1C(=O)c2ccccc2C1=O` (stereo unspecified) [Dialifos] belongs 11.5 min; to `CC(C)N(C(=O)SCC(Cl)=CCl)C(C)C` [Diallate], 11.8 min.
Turning to `CC(=O)Nc1c(I)c(NC(C)=O)c(I)c(C(=O)O)c1I` [Diatrizoate (Amidotrizoate acid)], the LC retention time is 2.79 min.
`O=C1CN=C(c2ccccc2)c2cc(Cl)ccc2N1` [Diazepam-Nor]: the LC retention time was 9.23 min.
`CN1C(=O)CN=C(c2ccccc2)c2cc(Cl)ccc21` [Diazepam]: the LC retention time is 9.53 min.
As for `CCOP(=O)(OCC)Oc1cc(C)nc(C(C)C)n1` [Diazinon-O-analog], the LC retention time is 8.65 min.
For the compound `CCOP(=S)(OCC)Oc1cc(C)nc(C(C)C)n1` [Diazinon], the LC retention time is 11 min.
Regarding `CN(C)CCN1C(=O)c2ccccc2N(C)c2ccccc21` [Dibenzepin], the LC retention time was 5.49 min.
In the case of `CCC(C(=O)c1ccc2c(c1)OCO2)N(C)C` (stereo unspecified) [Dibutylone], the LC retention time is 4.38 min.
As to `COC(=O)c1c(Cl)ccc(Cl)c1OC` [Dicamba-methyl], the LC retention time was 9.64 min.
The same measure for `COc1c(Cl)ccc(Cl)c1C(=O)O` [Dicamba]: 4.97 min.
As for `COP(=S)(OC)Oc1ccc([N+](=O)[O-])cc1Cl` [Dicapthon], the LC retention time is 10.5 min.
In the case of `CCOP(=S)(OCC)Oc1ccc(Cl)cc1Cl` [Dichlofenthion], the LC retention time was 12.6 min.
To `CN(C)S(=O)(=O)N(SC(F)(Cl)Cl)c1ccccc1` [Dichlofluanid] belongs 10 min.
`C=CCN(CC=C)C(=O)C(Cl)Cl` [Dichlormid]: the LC retention time was 7.18 min.
On to `NC(=O)c1c(Cl)cccc1Cl` [Dichlorobenzamide], for which the LC retention time is 4.48 min.
To `COC(=O)C(C)Oc1ccc(Cl)cc1Cl` (stereo unspecified) [Dichlorprop-methyl] belongs 10.5 min; to `CN1C(=O)CN=C(c2ccccc2Cl)c2cc(Cl)ccc21` [Diclazepam], 9.19 min; to `CC(C)(C)C(O)C(Cc1ccc(Cl)cc1Cl)n1cncn1` (stereo unspecified) [Diclobutrazol], 10.7 min.
Regarding `O=C(O)Cc1ccccc1Nc1c(Cl)cccc1Cl` [Diclofenac], the LC retention time is 10.2 min.
The same measure for `COC(=O)C(C)Oc1ccc(Oc2ccc(Cl)cc2Cl)cc1` (stereo unspecified) [Diclofop-methyl]: 12.3 min; for `Nc1c(Cl)cc([N+](=O)[O-])cc1Cl` [Dicloran]: 8.84 min.
In the case of `Cc1onc(-c2c(Cl)cccc2Cl)c1C(=O)NC1C(=O)N2C1SC(C)(C)C2C(=O)O` (stereo unspecified) [Dicloxacillin], the LC retention time was 7.8 min.
As to `OC(c1ccc(Cl)cc1)(c1ccc(Cl)cc1)C(Cl)(Cl)Cl` [Dicofol], the LC retention time was 11.8 min.
The same measure for `COP(=O)(OC)OC(C)=CC(=O)N(C)C` [Dicrotophos]: 4.5 min.

The record behind these values is the RepoRT retention time repository (doi:10.1021/acs.analchem.2c02893).
